ChEMBL document CHEMBL5291721, “A preclinical secondary pharmacology resource illuminates target-adverse drug reaction associations of marketed drugs” (Nat Commun, 2023)
Several values for one entry are separate records, joined by “and”; a condition that tells them apart may be missing. Equal entries are not always repeated.

Columns and labels:
D(3) dopamine receptor = D(3) dopamine receptor (Homo sapiens, UniProt P35462)
[1] = target: T1, 5-hydroxytryptamine receptor 2C (Homo sapiens, UniProt P28335)
T1 sequence (P28335 whole entry): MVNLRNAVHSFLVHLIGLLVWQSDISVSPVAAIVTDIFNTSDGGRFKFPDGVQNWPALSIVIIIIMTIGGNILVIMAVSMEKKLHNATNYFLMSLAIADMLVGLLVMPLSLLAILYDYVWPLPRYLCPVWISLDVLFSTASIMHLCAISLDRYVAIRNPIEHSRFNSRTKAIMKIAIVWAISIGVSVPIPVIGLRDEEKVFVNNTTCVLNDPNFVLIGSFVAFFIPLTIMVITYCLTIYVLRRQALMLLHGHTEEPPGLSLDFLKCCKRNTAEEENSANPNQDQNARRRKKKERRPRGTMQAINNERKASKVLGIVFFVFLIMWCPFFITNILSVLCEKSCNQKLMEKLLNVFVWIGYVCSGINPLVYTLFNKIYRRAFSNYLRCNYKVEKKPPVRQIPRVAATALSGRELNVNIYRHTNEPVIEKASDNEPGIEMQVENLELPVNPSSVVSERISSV

Thromboxane A2 receptor = target: T2, Thromboxane A2 receptor (Homo sapiens, UniProt P21731)
T2 sequence (P21731 whole entry): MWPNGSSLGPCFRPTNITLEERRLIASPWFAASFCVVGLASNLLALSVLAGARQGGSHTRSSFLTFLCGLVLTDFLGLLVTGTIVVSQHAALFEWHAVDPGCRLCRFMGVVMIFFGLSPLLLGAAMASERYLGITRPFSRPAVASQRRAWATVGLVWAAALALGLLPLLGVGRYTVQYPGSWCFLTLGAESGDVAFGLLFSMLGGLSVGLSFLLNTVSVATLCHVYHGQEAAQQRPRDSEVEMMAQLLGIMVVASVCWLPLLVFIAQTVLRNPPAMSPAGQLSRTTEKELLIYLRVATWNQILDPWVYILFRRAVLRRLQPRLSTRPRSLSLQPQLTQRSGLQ

Adenosine receptor A2a = Adenosine receptor A2a (Homo sapiens, UniProt P29274)
Sequence of Adenosine receptor A2a (P29274 whole entry): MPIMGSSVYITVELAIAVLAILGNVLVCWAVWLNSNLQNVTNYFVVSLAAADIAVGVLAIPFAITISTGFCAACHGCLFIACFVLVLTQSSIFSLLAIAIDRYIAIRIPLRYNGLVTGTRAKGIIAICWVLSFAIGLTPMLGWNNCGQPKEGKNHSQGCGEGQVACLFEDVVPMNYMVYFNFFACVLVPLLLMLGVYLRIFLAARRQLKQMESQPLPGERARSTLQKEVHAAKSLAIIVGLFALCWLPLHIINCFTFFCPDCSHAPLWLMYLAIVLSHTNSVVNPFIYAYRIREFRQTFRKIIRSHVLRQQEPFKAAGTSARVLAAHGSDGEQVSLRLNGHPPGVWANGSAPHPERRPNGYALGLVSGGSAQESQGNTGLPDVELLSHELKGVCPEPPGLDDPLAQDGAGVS

[2] = target: T3, Prostaglandin G/H synthase 1 (Rattus norvegicus, UniProt Q63921); type: functional
T3 sequence (Q63921 whole entry): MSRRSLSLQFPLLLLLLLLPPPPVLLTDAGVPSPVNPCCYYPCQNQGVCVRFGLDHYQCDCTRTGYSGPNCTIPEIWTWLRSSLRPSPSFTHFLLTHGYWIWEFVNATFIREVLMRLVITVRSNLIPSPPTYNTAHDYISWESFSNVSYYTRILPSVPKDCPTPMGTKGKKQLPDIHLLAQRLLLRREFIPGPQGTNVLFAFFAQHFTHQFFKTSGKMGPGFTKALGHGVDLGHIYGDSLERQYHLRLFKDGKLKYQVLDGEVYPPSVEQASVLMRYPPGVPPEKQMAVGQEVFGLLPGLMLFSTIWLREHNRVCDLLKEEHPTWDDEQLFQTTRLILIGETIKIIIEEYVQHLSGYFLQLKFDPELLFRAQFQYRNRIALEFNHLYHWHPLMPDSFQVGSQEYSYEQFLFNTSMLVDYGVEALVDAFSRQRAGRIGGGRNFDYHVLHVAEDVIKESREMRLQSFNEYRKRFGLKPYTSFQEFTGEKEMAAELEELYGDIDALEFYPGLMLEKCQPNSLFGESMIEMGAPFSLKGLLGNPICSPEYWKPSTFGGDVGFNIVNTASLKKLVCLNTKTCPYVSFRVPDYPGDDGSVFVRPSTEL

[3] = target: T4, Alpha-2A adrenergic receptor (Homo sapiens, UniProt P08913); type: functional, cell-based
T4 sequence (P08913 whole entry): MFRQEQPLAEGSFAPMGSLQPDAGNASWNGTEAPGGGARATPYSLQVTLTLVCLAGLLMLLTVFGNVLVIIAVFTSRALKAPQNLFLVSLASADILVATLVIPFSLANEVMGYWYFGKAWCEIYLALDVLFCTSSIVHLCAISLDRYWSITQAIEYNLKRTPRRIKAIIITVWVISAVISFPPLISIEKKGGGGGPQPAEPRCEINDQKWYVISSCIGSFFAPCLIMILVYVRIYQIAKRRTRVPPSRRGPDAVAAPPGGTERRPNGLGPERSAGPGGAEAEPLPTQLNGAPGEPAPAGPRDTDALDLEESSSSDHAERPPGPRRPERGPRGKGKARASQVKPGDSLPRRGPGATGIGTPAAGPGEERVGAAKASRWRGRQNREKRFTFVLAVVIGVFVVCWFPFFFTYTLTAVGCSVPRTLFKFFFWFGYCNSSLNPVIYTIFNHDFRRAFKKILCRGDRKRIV

Histamine H2 receptor = Histamine H2 receptor (Homo sapiens, UniProt P25021); type: functional, cell-based
Sequence of Histamine H2 receptor (P25021 whole entry): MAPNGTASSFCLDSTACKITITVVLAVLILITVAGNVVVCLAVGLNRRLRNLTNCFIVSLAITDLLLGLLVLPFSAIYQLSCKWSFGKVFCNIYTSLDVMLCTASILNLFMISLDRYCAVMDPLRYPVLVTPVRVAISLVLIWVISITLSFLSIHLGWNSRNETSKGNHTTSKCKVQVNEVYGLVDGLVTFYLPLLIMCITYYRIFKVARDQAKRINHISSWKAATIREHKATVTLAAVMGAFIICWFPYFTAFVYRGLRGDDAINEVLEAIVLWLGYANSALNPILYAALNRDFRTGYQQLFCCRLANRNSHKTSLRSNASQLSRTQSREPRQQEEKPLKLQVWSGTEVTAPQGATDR

[4] = target: Neuronal acetylcholine receptor subunit alpha-4 (Homo sapiens, UniProt P43681)
Sequence of Neuronal acetylcholine receptor subunit alpha-4 (P43681 whole entry): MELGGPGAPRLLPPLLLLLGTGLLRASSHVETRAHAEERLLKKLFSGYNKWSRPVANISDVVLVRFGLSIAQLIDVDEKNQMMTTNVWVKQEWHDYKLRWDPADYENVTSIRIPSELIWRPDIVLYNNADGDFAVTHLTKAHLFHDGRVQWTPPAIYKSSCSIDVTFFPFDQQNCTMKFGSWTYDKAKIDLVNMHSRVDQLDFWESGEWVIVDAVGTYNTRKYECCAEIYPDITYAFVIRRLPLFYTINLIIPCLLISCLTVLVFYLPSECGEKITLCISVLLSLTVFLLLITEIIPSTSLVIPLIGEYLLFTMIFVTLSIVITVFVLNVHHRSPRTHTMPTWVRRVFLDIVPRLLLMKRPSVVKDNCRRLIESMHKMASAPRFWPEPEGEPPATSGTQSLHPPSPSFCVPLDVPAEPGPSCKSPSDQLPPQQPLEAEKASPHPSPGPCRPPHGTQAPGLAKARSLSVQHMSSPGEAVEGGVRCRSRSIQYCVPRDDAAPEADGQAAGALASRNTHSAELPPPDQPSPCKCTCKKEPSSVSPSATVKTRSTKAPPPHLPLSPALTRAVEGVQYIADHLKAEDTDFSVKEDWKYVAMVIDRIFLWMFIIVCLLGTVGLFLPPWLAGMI

[5] = target: Sodium-dependent dopamine transporter (Homo sapiens, UniProt Q01959)
Sequence of Sodium-dependent dopamine transporter (Q01959 whole entry): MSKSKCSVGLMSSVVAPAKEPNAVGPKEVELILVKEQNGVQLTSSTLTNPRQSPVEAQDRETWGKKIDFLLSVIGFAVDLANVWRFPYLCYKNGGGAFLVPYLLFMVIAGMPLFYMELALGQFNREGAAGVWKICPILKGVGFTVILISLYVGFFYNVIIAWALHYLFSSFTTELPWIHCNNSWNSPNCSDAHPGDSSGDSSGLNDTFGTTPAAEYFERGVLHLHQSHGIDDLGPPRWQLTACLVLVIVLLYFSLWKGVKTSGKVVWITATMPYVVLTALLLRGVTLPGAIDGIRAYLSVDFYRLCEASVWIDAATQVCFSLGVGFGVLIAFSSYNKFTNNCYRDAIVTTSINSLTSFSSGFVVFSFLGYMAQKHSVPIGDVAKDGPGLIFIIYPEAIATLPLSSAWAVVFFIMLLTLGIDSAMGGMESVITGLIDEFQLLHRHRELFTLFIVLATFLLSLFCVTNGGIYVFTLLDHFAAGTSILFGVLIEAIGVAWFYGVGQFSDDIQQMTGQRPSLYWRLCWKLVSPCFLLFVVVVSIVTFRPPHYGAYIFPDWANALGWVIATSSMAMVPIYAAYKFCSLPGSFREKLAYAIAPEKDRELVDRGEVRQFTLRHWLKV

[6] = target: T5, 5-hydroxytryptamine receptor 3A (Homo sapiens, UniProt P46098); type: functional
T5 sequence (P46098 whole entry): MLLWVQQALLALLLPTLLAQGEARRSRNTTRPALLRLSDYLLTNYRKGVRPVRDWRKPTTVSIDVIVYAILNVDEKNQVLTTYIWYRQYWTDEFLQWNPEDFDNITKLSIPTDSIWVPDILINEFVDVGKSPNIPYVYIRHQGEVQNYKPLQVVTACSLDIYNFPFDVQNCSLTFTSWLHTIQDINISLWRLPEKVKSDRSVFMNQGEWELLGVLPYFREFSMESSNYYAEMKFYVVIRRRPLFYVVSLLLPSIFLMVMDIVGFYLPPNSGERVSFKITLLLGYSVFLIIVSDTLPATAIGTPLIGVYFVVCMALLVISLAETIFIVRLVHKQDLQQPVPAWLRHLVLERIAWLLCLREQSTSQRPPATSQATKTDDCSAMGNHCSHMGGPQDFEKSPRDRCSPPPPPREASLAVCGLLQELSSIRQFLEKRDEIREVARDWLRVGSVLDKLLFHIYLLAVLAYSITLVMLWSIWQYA
Note: assay procedure not described here.

Sequence of D(3) dopamine receptor (P35462 whole entry): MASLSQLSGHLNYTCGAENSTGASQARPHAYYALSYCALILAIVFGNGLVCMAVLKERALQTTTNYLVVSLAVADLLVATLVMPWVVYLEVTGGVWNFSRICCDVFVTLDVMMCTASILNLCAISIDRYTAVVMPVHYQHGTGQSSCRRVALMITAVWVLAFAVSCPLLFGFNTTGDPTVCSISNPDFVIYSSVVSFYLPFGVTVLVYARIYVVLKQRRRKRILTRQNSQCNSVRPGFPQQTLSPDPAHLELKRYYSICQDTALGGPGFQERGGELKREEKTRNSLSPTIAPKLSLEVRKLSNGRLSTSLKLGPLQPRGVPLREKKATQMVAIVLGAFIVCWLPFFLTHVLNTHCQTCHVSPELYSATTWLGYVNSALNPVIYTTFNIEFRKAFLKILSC

CNC1=Nc2ccc(Cl)cc2C(c2ccccc2)=[N+]([O-])C1 [CHLORDIAZEPOXIDE]
AC50 (D(3) dopamine receptor): > 30 µM
AC50 [1]: > 30 µM
AC50 (Thromboxane A2 receptor): > 30 µM
AC50 (Adenosine receptor A2a): > 30 µM
AC50 [2]: > 30 µM
AC50 [3]: > 10 µM
AC50 (Histamine H2 receptor): > 30 µM
AC50 [4]: > 10 µM
AC50 [5]: > 30 µM
AC50 [6]: > 30 µM

CN1CCC(=C2c3ccccc3CCc3cccnc32)CC1 [AZATADINE]
AC50 (D(3) dopamine receptor): > 10 µM
AC50 [1]: 3.1 µM
AC50 (Thromboxane A2 receptor): > 30 µM
AC50 (Adenosine receptor A2a): > 30 µM
AC50 [2]: > 30 µM
AC50 [3]: > 10 µM
AC50 (Histamine H2 receptor): > 10 µM
AC50 [4]: > 10 µM
AC50 [5]: > 30 µM
AC50 [6]: > 30 µM

CCOC(=O)C1=C(C)NC(C)=C(C(=O)OC)C1c1cccc([N+](=O)[O-])c1 (stereo not given) [NITRENDIPINE]
AC50 (D(3) dopamine receptor): > 30 µM
AC50 [1]: > 30 µM
AC50 (Thromboxane A2 receptor): > 30 µM
AC50 (Adenosine receptor A2a): > 30 µM
AC50 [2]: > 30 µM
AC50 [3]: > 10 µM
AC50 (Histamine H2 receptor): > 10 µM
AC50 [4]: > 10 µM
AC50 [5]: 32.2 µM
AC50 [6]: > 30 µM

C#C[C@]1(OC(C)=O)CC[C@H]2[C@@H]3CCC4=C/C(=N/O)CC[C@@H]4[C@H]3CC[C@@]21CC [NORGESTIMATE]
AC50 (D(3) dopamine receptor): 29 µM
AC50 [1]: > 30 µM
AC50 (Thromboxane A2 receptor): > 30 µM
AC50 (Adenosine receptor A2a): > 30 µM
AC50 [2]: 7.8 µM
AC50 [3]: > 30 µM
AC50 (Histamine H2 receptor): > 30 µM
AC50 [4]: > 30 µM
AC50 [5]: 10 µM
AC50 [6]: > 30 µM

CC12CC3CC(C)(C1)CC(N)(C3)C2 [MEMANTINE]
AC50 (D(3) dopamine receptor): > 30 µM
AC50 [1]: > 30 µM
AC50 (Thromboxane A2 receptor): > 30 µM
AC50 (Adenosine receptor A2a): > 30 µM
AC50 [2]: > 30 µM
AC50 [3]: > 10 µM
AC50 (Histamine H2 receptor): > 10 µM
AC50 [4]: > 10 µM
AC50 [5]: > 30 µM
AC50 [6]: > 30 µM

Cc1noc(NS(=O)(=O)c2ccc(N)cc2)c1C [SULFISOXAZOLE]
AC50 (D(3) dopamine receptor): > 30 µM
AC50 [1]: > 30 µM
AC50 (Thromboxane A2 receptor): > 10 µM
AC50 (Adenosine receptor A2a): > 10 µM
AC50 [2]: > 10 µM
AC50 [3]: > 10 µM
AC50 (Histamine H2 receptor): > 10 µM
AC50 [4]: > 10 µM
AC50 [5]: > 10 µM
AC50 [6]: > 30 µM

CCC(C)C(CC)C(N)=O (stereo not given) [VALNOCTAMIDE]
AC50 (D(3) dopamine receptor): > 30 µM
AC50 [1]: > 30 µM
AC50 (Thromboxane A2 receptor): > 30 µM
AC50 (Adenosine receptor A2a): > 30 µM
AC50 [2]: > 30 µM
AC50 [3]: > 30 µM
AC50 (Histamine H2 receptor): > 30 µM
AC50 [4]: > 30 µM
AC50 [5]: > 30 µM
AC50 [6]: > 30 µM

Clc1ccc(C(Cn2ccnc2)OCc2ccsc2Cl)c(Cl)c1 (stereo not given) [TIOCONAZOLE]
AC50 (D(3) dopamine receptor): 24 µM
AC50 [1]: > 30 µM
AC50 (Thromboxane A2 receptor): 28.1 µM
AC50 (Adenosine receptor A2a): > 30 µM
AC50 [2]: 12.4 µM
AC50 [3]: > 30 µM
AC50 (Histamine H2 receptor): > 30 µM
AC50 [4]: > 30 µM
AC50 [5]: 10.6 µM
AC50 [6]: > 30 µM

CC(C)(C)C(=O)OCC(=O)[C@H]1CC[C@H]2[C@@H]3CCC4=CC(=O)CC[C@]4(C)[C@H]3CC[C@]12C [DESOXYCORTICOSTERONE PIVALATE]
AC50 (D(3) dopamine receptor): > 30 µM
AC50 [1]: > 30 µM
AC50 (Thromboxane A2 receptor): > 10 µM
AC50 (Adenosine receptor A2a): > 10 µM
AC50 [2]: > 10 µM
AC50 [3]: > 10 µM
AC50 (Histamine H2 receptor): > 10 µM
AC50 [4]: > 10 µM
AC50 [5]: > 10 µM
AC50 [6]: > 30 µM

C[C@]12CCC(=O)C(O)=C1CC[C@@H]1[C@@H]2CC[C@]2(C)C(=O)CC[C@@H]12 [FORMESTANE]
AC50 (D(3) dopamine receptor): > 30 µM
AC50 [1]: > 30 µM
AC50 (Thromboxane A2 receptor): > 30 µM
AC50 (Adenosine receptor A2a): > 30 µM
AC50 [2]: > 30 µM
AC50 [3]: > 30 µM
AC50 (Histamine H2 receptor): > 30 µM
AC50 [4]: > 30 µM
AC50 [5]: > 30 µM
AC50 [6]: > 30 µM

Cc1cc2cc3c(C)cc(=O)oc3c(C)c2o1 [TRIOXSALEN]
AC50 (D(3) dopamine receptor): > 30 µM
AC50 [1]: > 30 µM
AC50 (Thromboxane A2 receptor): > 10 µM
AC50 (Adenosine receptor A2a): 6.7 µM
AC50 [2]: > 10 µM
AC50 [3]: > 10 µM
AC50 (Histamine H2 receptor): > 10 µM
AC50 [4]: > 10 µM
AC50 [5]: > 10 µM
AC50 [6]: > 30 µM

CCCC(CCC)C(N)=O [VALPROMIDE]
AC50 (D(3) dopamine receptor): > 30 µM
AC50 [1]: > 30 µM
AC50 (Thromboxane A2 receptor): > 30 µM
AC50 (Adenosine receptor A2a): > 30 µM
AC50 [2]: > 30 µM
AC50 [3]: > 10 µM
AC50 (Histamine H2 receptor): > 10 µM
AC50 [4]: > 10 µM
AC50 [5]: > 30 µM
AC50 [6]: > 30 µM

CCOC(=O)C1=C[C@]2(CC)CCCN3CCc4c(n1c1ccccc41)[C@@H]32 [VINPOCETINE]
AC50 (D(3) dopamine receptor): 23 µM
AC50 [1]: > 30 µM
AC50 (Thromboxane A2 receptor): > 30 µM
AC50 (Adenosine receptor A2a): > 30 µM
AC50 [2]: > 30 µM
AC50 [3]: > 30 µM
AC50 (Histamine H2 receptor): > 30 µM
AC50 [4]: > 30 µM
AC50 [5]: 21 µM
AC50 [6]: > 30 µM

C[C@H](Cc1ccc(O)c(O)c1)[C@@H](C)Cc1ccc(O)c(O)c1 [MASOPROCOL]
AC50 (D(3) dopamine receptor): 1.8 µM
AC50 [1]: > 30 µM
AC50 (Thromboxane A2 receptor): > 10 µM and 29 µM (2×)
AC50 (Adenosine receptor A2a): > 30 µM
AC50 [2]: 18 µM and 14 µM and 12 µM
AC50 [3]: > 10 µM
AC50 (Histamine H2 receptor): > 10 µM
AC50 [4]: > 30 µM
AC50 [5]: 3.4 µM and 5.4 µM and 5.2 µM
AC50 [6]: > 30 µM
